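Interpolation was linear, between the two tested concentrations surrounding the appropriate level; five concentrations were tested over 48 hours in 96-well plates. At the GI50, growth is halved.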 Active and inactive are the calls of the source. Rule as the data show it: active = GI50 up to about 1.1 µM and inactive = higher.
Legend:
Assay in all cases: growth of human tumour cells (NCI), 48 h
786-0 = system: 786-0
A549 = system: A549
ACHN = system: ACHN
BT-549 = system: BT-549
CAKI-1 = system: CAKI-1
CCRF-CEM = system: CCRF-CEM
COLO 205 = system: COLO 205
DU-145 = system: DU-145
EKVX = system: EKVX
HCC 2998 = system: HCC 2998
HCT-116 = system: HCT-116
HCT-15 = system: HCT-15
HL-60 = system: HL-60
HOP-62 = system: HOP-62
HOP-92 = system: HOP-92
HT-29 = system: HT-29
Hs-578T = system: Hs-578T
IGROV-1 = system: IGROV-1
K562 = system: K562
KM12 = system: KM12
LOX IMVI = system: LOX IMVI
M14 = system: M14
MCF7 = system: MCF7
MDA-MB-231 = system: MDA-MB-231
MDA-MB-435 = system: MDA-MB-435
MDA-N = system: MDA-N
MOLT-4 = system: MOLT-4
Malme-3M = system: Malme-3M
NCI-H226 = system: NCI-H226
NCI-H23 = system: NCI-H23
NCI-H460 = system: NCI-H460
NCI-H522 = system: NCI-H522
NCI/ADR-RES = system: NCI/ADR-RES
OVCAR-3 = system: OVCAR-3
OVCAR-4 = system: OVCAR-4
OVCAR-5 = system: OVCAR-5
OVCAR-8 = system: OVCAR-8
PC-3 = system: PC-3
RPMI-8226 = system: RPMI-8226
RXF 393 = system: RXF 393
SF-268 = system: SF-268
SF-295 = system: SF-295
SK-MEL-28 = system: SK-MEL-28
SK-MEL-2 = system: SK-MEL-2
SK-MEL-5 = system: SK-MEL-5
SK-OV-3 = system: SK-OV-3
SN12C = system: SN12C
SNB-19 = system: SNB-19
SNB-75 = system: SNB-75
SR = system: SR
T47D = system: T47D
TK-10 = system: TK-10
U-251 = system: U-251
UACC-257 = system: UACC-257
UACC-62 = system: UACC-62
UO-31 = system: UO-31
A498 = system: A498
SF-539 = system: SF-539
SW-620 = system: SW-620

Measured: GI50

CN1C(=O)C2(c3ccccc31)C1CC3C(CO1)C1C2C3(CO)CN1C#N (centres undefined)
inactive: 786-0 > 100 µM | A549 > 100 µM | ACHN > 100 µM | BT-549 > 100 µM | CAKI-1 > 100 µM | CCRF-CEM > 100 µM | COLO 205 > 100 µM | DU-145 > 100 µM | EKVX > 100 µM | HCC 2998 > 100 µM | HCT-116 > 100 µM | HL-60 > 100 µM | HOP-62 > 100 µM | HOP-92 > 100 µM | HT-29 > 100 µM | Hs-578T > 100 µM | IGROV-1 > 100 µM | K562 > 100 µM | KM12 > 100 µM | LOX IMVI > 100 µM | M14 > 100 µM | MCF7 > 100 µM | MDA-MB-231 > 100 µM | MDA-MB-435 > 100 µM | MDA-N > 100 µM | MOLT-4 > 100 µM | Malme-3M > 100 µM | NCI-H226 > 100 µM | NCI-H23 > 100 µM | NCI-H460 > 100 µM | NCI-H522 > 100 µM | NCI/ADR-RES > 100 µM | OVCAR-3 > 100 µM | OVCAR-4 > 100 µM | OVCAR-5 > 100 µM | OVCAR-8 > 100 µM | PC-3 > 100 µM | RPMI-8226 > 100 µM | RXF 393 > 100 µM | SF-268 > 100 µM | SF-295 > 100 µM | SK-MEL-28 > 100 µM | SK-MEL-2 > 100 µM | SK-MEL-5 > 100 µM | SK-OV-3 > 100 µM | SN12C > 100 µM | SNB-19 > 100 µM | SNB-75 > 100 µM | SR > 100 µM | T47D > 100 µM | TK-10 > 100 µM | U-251 > 100 µM | UACC-257 > 100 µM | UACC-62 > 100 µM | UO-31 > 100 µM
> 100 µM: HCT-15

Oc1c(Br)cc(/C=C/c2cccc(/C=C/c3cc(Br)c(O)c(Br)c3)n2)cc1Br
inactive: 786-0 14.8 µM | A498 8.2 µM | A549 3.72 µM | ACHN 6.38 µM | BT-549 26.1 µM | CAKI-1 11.5 µM | COLO 205 14.6 µM | EKVX 14.8 µM | HCC 2998 6.5 µM | HCT-116 8.81 µM | HL-60 2.03 µM | HOP-62 31.6 µM | HOP-92 12.1 µM | HT-29 12.6 µM | Hs-578T 17.5 µM | IGROV-1 13.4 µM | K562 3.3 µM | KM12 5.66 µM | LOX IMVI 13.7 µM | M14 13.8 µM | MCF7 15.5 µM | MDA-MB-231 14.8 µM | MDA-MB-435 13.5 µM | MDA-N 18.8 µM | MOLT-4 3.43 µM | NCI-H460 2.96 µM | NCI/ADR-RES 21.6 µM | OVCAR-3 14.1 µM | OVCAR-4 13.3 µM | OVCAR-5 17.6 µM | OVCAR-8 13 µM | PC-3 7.52 µM | RPMI-8226 11.5 µM | SF-268 15 µM | SF-295 7.87 µM | SF-539 13.7 µM | SK-MEL-28 12.1 µM | SK-MEL-2 4.89 µM | SK-MEL-5 7.06 µM | SK-OV-3 20.6 µM | SN12C 9.68 µM | SNB-19 9.98 µM | SNB-75 4.34 µM | SR 5.15 µM | SW-620 17.7 µM | T47D 5.89 µM | TK-10 14.2 µM | U-251 9.06 µM | UACC-257 15.7 µM | UACC-62 15.7 µM | UO-31 15.1 µM
6.22 µM: HCT-15
active: DU-145 < 0.01 µM

From ChEMBL document CHEMBL1201862, “PubChem BioAssay data set” (2004)
